Broadly, the MIC is the smallest concentration in the dilution series that meets the test's criterion for growth inhibition. Usually IC50 stands for the concentration that gives 50% inhibition. A lower IC50 goes with inhibition by little substance.

The source of these data is ChEMBL document CHEMBL5532748, “Design, synthesis and antibacterial activity evaluation of ebselen derivatives in NDM-1 producing bacteria” (RSC Med Chem, 2024).

Values after ≈ are worked out from the molar mass of the structure shown. Active and inactive are the calls of the source.

For data set [1], the system named is Escherichia coli. As to the kind of experiment: Antibacterial activity against Escherichia coli BJE-4 expressing NDM-1 gene in presence of meropenem. The data set is classed as functional.
Data set [2] concerns Escherichia coli. As to the kind of experiment: Antibacterial activity against Escherichia coli TG-1 transfected with Klebsiella pneumoniae full-length NDM-1 beta lactamase gene incubated in presence of meropenem. The data set is classed as functional.
Data set [3] deals with Escherichia coli. As to the kind of experiment: Antibacterial activity against Escherichia coli TG-1 transfected with Klebsiella pneumoniae full-length NDM-1 beta-lactamase gene. The data set is classed as functional.
Data set [4] has as its system Escherichia coli. As to the kind of experiment: Synergistic antibacterial activity against Escherichia coli TG-1 transfected with Klebsiella pneumoniae full-length NDM-1 beta lactamase gene assessed as fractional inhibitory concentration index in presence of meropenem. It counts as functional.
Data set [5] has as its system Escherichia coli. As to the kind of experiment: Synergistic antibacterial activity against Escherichia coli BJE-4 expressing NDM-1 gene assessed as fractional inhibitory concentration index in presence of meropenem. The data set is classed as functional.
The test system of data set [6] is Escherichia coli. As to the kind of experiment: Antibacterial activity against Escherichia coli BJE-4 expressing NDM-1 gene. It counts as functional.
For data set [7], the target named is Metallo-beta-lactamase type 2 (Bacteria, UniProt C7C422). As to the kind of experiment: Inhibition of NDM-1 (unknown origin) using nitrocefin as substrate incubated for 15 to 60 mins by absorption based analysis.
Sequence of Metallo-beta-lactamase type 2 (C7C422 whole entry): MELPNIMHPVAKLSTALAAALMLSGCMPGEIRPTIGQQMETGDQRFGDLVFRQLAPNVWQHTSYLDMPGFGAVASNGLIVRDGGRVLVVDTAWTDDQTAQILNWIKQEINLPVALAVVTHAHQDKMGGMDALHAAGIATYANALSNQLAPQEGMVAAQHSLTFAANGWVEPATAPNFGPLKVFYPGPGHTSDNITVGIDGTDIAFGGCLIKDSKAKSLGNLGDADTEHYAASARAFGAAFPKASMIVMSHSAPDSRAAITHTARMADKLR
The test system of data set [8] is Escherichia coli. As to the kind of experiment: Antibacterial activity against Escherichia coli TG-1. The data set is classed as functional.
Data set [9] concerns Klebsiella pneumoniae. As to the kind of experiment: Antibacterial activity against Klebsiella pneumoniae producing NDM-1, KPC-2 and SHV-12 beta-lactamases. It counts as functional.
Data set [10] concerns Escherichia coli. As to the kind of experiment: Antibacterial activity against Escherichia coli producing NDM-1, CTX-M-15 and SHV-12 beta lactamases. It counts as functional.
In data set [11] the test system is Enterobacter cloacae. As to the kind of experiment: Antibacterial activity against Enterobacter cloacae producing NDM-1, IMP-4 and TEM-1 beta-lactamases. The data set is classed as functional.
Data set [12] concerns Citrobacter freundii. As to the kind of experiment: Antibacterial activity against Citrobacter freundii producing NDM-1, CTX-M-3 and KPC-2 beta-lactamases. The data set is classed as functional.
Data set [13] has as its system Enterobacter cloacae. As to the kind of experiment: Antibacterial activity against Enterobacter cloacae producing NDM-1, CTX-M-14 and TEM-1 beta-lactamases. It counts as functional.
The test system of data set [14] is Caco-2. As to the kind of experiment: Antibacterial activity against Salmonella lomita SL131 infected in human Caco-2 cells assessed as reduction in bacterial survival rate at 64 ug/ml incubated for 6 hrs by agar dilution method. It counts as functional, cell-based. The following applies: Salmonella enterica subsp. enterica serovar Lomita, dose 64.0 µg/ml.
Data set [15] has as its system Enterobacter cloacae. As to the kind of experiment: Antibacterial activity against Enterobacter cloacae producing NDM-1, TEM-1 and SHV-12 beta-lactamases. The data set is classed as functional.
The subject of data set [16] is Escherichia coli. As to the kind of experiment: Antibacterial activity against Escherichia coli producing NDM-1 and CTX-M-15 beta lactamases. The data set is classed as functional.
In data set [17] the test system is Citrobacter freundii. As to the kind of experiment: Antibacterial activity against Citrobacter freundii producing NDM-1 and SHV-12 beta-lactamases. The data set is classed as functional.
Data set [18] concerns HEK-293T. As to the kind of experiment: Cytotoxicity against HEK293T cells assessed as reduction in cell viability at 8 to 64 ug/ml incubated for 48 hrs by MTT assay. It counts as toxicity, cell-based. As to conditions: human, dose 8-64 µg/ml.

Consider `CC(C)(C)OC(=O)N1CCC(n2[se]c3ccccc3c2=O)CC1`, for which the MIC in [1] is 8 µg/mL; in [2] it was 16 µg/mL; in data set [3], over 64 µg/mL; in data set [6], over 16 µg/mL. For the same compound, the “fractional inhibitory concentration index (FICI)” value is 0.5 in data set [4] and 0.625 in [5].
As to `CC(C)(C)C(=O)NCCCn1[se]c2ccccc2c1=O`, the MIC in data set [1] is 8 µg/mL; in data set [2] it was 16 µg/mL; in [3], over 64 µg/mL; in data set [6] it was over 16 µg/mL. Further, the “fractional inhibitory concentration index (FICI)” value in [4] was determined as 0.5; in data set [5], 0.625.
Take `CSc1nnc(-n2[se]c3ccccc3c2=O)s1`: the MIC in data set [1] was 8 µg/mL; in data set [2], at most 8 µg/mL; in data set [3] it was over 64 µg/mL; in data set [6], over 16 µg/mL. Half-maximal inhibition in data set [7] (IC50) was put at 8.8 µM. Also, the “fractional inhibitory concentration index (FICI)” value came out at 0.25 in data set [4] and 0.625 in data set [5].
Consider `O=c1c2ccccc2[se]n1-c1ccc(-c2ccccc2)cc1`, for which the MIC in data set [1] was 8 µg/mL; in [2], 64 µg/mL; in [3], 64 µg/mL (≈ 183 µM); in data set [6] it was over 16 µg/mL. In addition, the “fractional inhibitory concentration index (FICI)” value was 2 in [4] and 0.625 in data set [5].
Regarding `O=c1c2ccccc2[se]n1CCNS(=O)(=O)c1ccc(F)cc1`, the MIC was 8 µg/mL in data set [1], at most 8 µg/mL in [2], over 64 µg/mL in data set [3] and over 16 µg/mL in data set [6]. The entries for the “fractional inhibitory concentration index (FICI)” value in data set [4] and in data set [5] were 0.25 and 0.625, respectively.
For `CS(=O)(=O)c1ccc(-n2[se]c3ccccc3c2=O)cc1`, the MIC was 8 µg/mL in [1], at most 8 µg/mL in [2], over 64 µg/mL in data set [3] and over 16 µg/mL in data set [6]. The same compound returned an IC50 in data set [7] of 7.29 µM. The entries for the “fractional inhibitory concentration index (FICI)” value in data set [4] and in [5] were 0.25 and 0.625, respectively.
Consider `CC(C)(C)OC(=O)NCCCCn1[se]c2ccccc2c1=O`, for which the minimum inhibitory concentration (MIC) in data set [1] is 8 µg/mL; in [2] it was 32 µg/mL; in data set [3] it was over 64 µg/mL; in data set [6], over 16 µg/mL. Moreover, the “fractional inhibitory concentration index (FICI)” value in data set [4] was 1; in data set [5] it was 0.625.
Regarding `Cc1ccc(S(=O)(=O)NCCn2[se]c3ccccc3c2=O)cc1`, the MIC in data set [1] is 8 µg/mL; in data set [2], at most 8 µg/mL; in data set [3], over 64 µg/mL; in data set [6], over 16 µg/mL. The “fractional inhibitory concentration index (FICI)” value is recorded as 0.25 in data set [4] and 0.625 in [5].
`CC(C)(C)OC(=O)N1CC[C@@H](n2[se]c3ccccc3c2=O)C1`: the MIC in data set [1] was 8 µg/mL; in data set [2] it was at most 8 µg/mL; in data set [3], over 64 µg/mL; in [6], over 16 µg/mL. Moreover, the entries for the “fractional inhibitory concentration index (FICI)” value in [4] and in data set [5] were 0.25 and 0.625, respectively.
Consider `CC(C)(C)C(=O)NCCn1[se]c2ccccc2c1=O`, for which the MIC is 8 µg/mL in data set [1], 64 µg/mL in [2], over 64 µg/mL in [3] and over 16 µg/mL in data set [6]. In addition, the “fractional inhibitory concentration index (FICI)” value in [4] came to 2; in data set [5], 0.625.
Turning to `COC(=O)c1ccc(-n2[se]c3ccccc3c2=O)cc1C`, the MIC in data set [1] was 8 µg/mL; in [2] it was 16 µg/mL; in data set [3], over 64 µg/mL; in data set [6], over 16 µg/mL. Moreover, the “fractional inhibitory concentration index (FICI)” value in data set [4] was found to be 0.5; in data set [5], 0.625.
As for `C[C@@H](O)[C@H]1C(=O)N2C(C(=O)O)=C(S[C@@H]3CN[C@H](C(=O)N(C)C)C3)[C@H](C)[C@H]12` [MEROPENEM], the MIC in data set [8] was 0.5 µg/mL (≈ 1.3 µM); in data set [9], over 64 µg/mL; in [10], over 64 µg/mL; in data set [11] it was 64 µg/mL (≈ 167 µM); in data set [12], over 64 µg/mL; in data set [13], 64 µg/mL (≈ 167 µM). The MIC was over 64 µg/mL in data set [3]; 64 µg/mL (≈ 167 µM) in data set [15]; over 64 µg/mL in data set [16]; 64 µg/mL (≈ 167 µM) in [17]; over 16 µg/mL in [6]. The result in [14] was inactive.
Consider `CCS(=O)(=O)NCCn1[se]c2ccccc2c1=O`, for which the MIC was 8 µg/mL in data set [1], 16 µg/mL in data set [2], over 64 µg/mL in data set [3] and over 16 µg/mL in data set [6]. The “fractional inhibitory concentration index (FICI)” value amounted to 0.5 in [4] and 0.625 in data set [5].
With `CCc1ccc(-n2[se]c3ccccc3c2=O)cc1`, the MIC in [1] was 8 µg/mL; in data set [2], 64 µg/mL; in data set [3] it was over 64 µg/mL; in data set [6], over 16 µg/mL. The “fractional inhibitory concentration index (FICI)” value is reported as 2 in [4] and 0.625 in data set [5].
In the case of `COc1ccc(S(=O)(=O)NCCn2[se]c3ccccc3c2=O)cc1`, the MIC in [1] was 8 µg/mL; in [2], at most 8 µg/mL; in [3], over 64 µg/mL; in data set [6], over 16 µg/mL. In addition, the “fractional inhibitory concentration index (FICI)” value in [4] is 0.25; in [5] it was 0.625.
For `CC(C)(C)OC(=O)NCCn1[se]c2ccccc2c1=O`, the MIC in data set [1] is 8 µg/mL; in data set [2], 16 µg/mL; in [3] it was over 64 µg/mL; in [6], over 16 µg/mL. Also, the IC50 in data set [7] is 1.26 µM. For the same compound, the “fractional inhibitory concentration index (FICI)” value in [4] amounted to 0.5; in data set [5], 0.625.
Regarding `COC(=O)c1ccc(-n2[se]c3ccccc3c2=O)cc1OC`, the MIC in data set [1] is 4 µg/mL; in data set [2], at most 8 µg/mL; in [3], over 64 µg/mL; in data set [6], over 16 µg/mL. Moreover, the IC50 in data set [7] was 7.81 µM. Also, the “fractional inhibitory concentration index (FICI)” value in [4] came out at 0.25; in data set [5], 0.313. In addition, the Activity entry in data set [18] is listed as “Non-Toxic”.
Turning to `CC(C)(C)OC(=O)NCCCn1[se]c2ccccc2c1=O`, the MIC in [1] is 8 µg/mL; in data set [2], 16 µg/mL; in data set [3], over 64 µg/mL; in data set [6] it was over 16 µg/mL. For the same compound, the “fractional inhibitory concentration index (FICI)” value in data set [4] stood at 0.5; in [5] it was 0.625.
Regarding `CN(C)S(=O)(=O)NCCn1[se]c2ccccc2c1=O`, the MIC is 8 µg/mL in [1], at most 8 µg/mL in data set [2], over 64 µg/mL in [3] and over 16 µg/mL in data set [6]. In addition, the “fractional inhibitory concentration index (FICI)” value in [4] was 0.25; in data set [5], 0.625.
For `O=c1c2ccccc2[se]n1CCNS(=O)(=O)c1ccc(Cl)c([N+](=O)[O-])c1`, the MIC in data set [1] was 8 µg/mL; in data set [2], 16 µg/mL; in data set [3], over 64 µg/mL; in data set [6], over 16 µg/mL. Also, the “fractional inhibitory concentration index (FICI)” value in data set [4] was found to be 0.5; in data set [5] it was 0.625.
As to `COC(=O)c1cccc(-n2[se]c3ccccc3c2=O)c1`, the MIC in data set [1] was 8 µg/mL; in data set [2] it was at most 8 µg/mL; in [3], over 64 µg/mL; in data set [6], over 16 µg/mL. Besides, in data set [7], the IC50 worked out at 3.63 µM. Moreover, the “fractional inhibitory concentration index (FICI)” value in data set [4] is on record as 0.25; in data set [5], 0.625.
Take `CC(C)(C)c1ccc(S(=O)(=O)NCCn2[se]c3ccccc3c2=O)cc1`: the MIC in data set [1] was 8 µg/mL; in data set [2], at most 8 µg/mL; in data set [3], over 64 µg/mL; in [6], over 16 µg/mL. The “fractional inhibitory concentration index (FICI)” value in data set [4] stood at 0.25; in data set [5], 0.625.
Consider `CC(C)(C)OC(=O)NCCCCCn1[se]c2ccccc2c1=O`, for which the MIC in data set [1] is 8 µg/mL; in [2], 16 µg/mL; in [3], over 64 µg/mL; in [6], over 16 µg/mL. Also, the “fractional inhibitory concentration index (FICI)” value in data set [4] worked out at 0.5; in data set [5], 0.625.
